Biological target: T1, ΔF508-CFTR (Homo sapiens, UniProt P13569, DEL508-508)
T1 construct: expressed in transfected cells
Assay: Membrane potential optical assay (FRET/VIPR), identification of correction compounds
Assay type: cell-based
Conditions: for Emax: relative efficacy
Summary of the method: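 Corrector screen: FRET voltage-sensor dyes (CC2-DMPE donor, DiSBAC2(3)) report Cl^− efflux-driven depolarization after 10 μM forskolin and 20 μM genistein in Cl^−-free medium. Beforehand, ΔF508-CFTR NIH3T3 fibroblasts received compound for 16 hrs at 37° C; temperature-corrected cells (27° C) served as positive control.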

T1 sequence (P13569 with tags, fused parts or gaps DEL508-508): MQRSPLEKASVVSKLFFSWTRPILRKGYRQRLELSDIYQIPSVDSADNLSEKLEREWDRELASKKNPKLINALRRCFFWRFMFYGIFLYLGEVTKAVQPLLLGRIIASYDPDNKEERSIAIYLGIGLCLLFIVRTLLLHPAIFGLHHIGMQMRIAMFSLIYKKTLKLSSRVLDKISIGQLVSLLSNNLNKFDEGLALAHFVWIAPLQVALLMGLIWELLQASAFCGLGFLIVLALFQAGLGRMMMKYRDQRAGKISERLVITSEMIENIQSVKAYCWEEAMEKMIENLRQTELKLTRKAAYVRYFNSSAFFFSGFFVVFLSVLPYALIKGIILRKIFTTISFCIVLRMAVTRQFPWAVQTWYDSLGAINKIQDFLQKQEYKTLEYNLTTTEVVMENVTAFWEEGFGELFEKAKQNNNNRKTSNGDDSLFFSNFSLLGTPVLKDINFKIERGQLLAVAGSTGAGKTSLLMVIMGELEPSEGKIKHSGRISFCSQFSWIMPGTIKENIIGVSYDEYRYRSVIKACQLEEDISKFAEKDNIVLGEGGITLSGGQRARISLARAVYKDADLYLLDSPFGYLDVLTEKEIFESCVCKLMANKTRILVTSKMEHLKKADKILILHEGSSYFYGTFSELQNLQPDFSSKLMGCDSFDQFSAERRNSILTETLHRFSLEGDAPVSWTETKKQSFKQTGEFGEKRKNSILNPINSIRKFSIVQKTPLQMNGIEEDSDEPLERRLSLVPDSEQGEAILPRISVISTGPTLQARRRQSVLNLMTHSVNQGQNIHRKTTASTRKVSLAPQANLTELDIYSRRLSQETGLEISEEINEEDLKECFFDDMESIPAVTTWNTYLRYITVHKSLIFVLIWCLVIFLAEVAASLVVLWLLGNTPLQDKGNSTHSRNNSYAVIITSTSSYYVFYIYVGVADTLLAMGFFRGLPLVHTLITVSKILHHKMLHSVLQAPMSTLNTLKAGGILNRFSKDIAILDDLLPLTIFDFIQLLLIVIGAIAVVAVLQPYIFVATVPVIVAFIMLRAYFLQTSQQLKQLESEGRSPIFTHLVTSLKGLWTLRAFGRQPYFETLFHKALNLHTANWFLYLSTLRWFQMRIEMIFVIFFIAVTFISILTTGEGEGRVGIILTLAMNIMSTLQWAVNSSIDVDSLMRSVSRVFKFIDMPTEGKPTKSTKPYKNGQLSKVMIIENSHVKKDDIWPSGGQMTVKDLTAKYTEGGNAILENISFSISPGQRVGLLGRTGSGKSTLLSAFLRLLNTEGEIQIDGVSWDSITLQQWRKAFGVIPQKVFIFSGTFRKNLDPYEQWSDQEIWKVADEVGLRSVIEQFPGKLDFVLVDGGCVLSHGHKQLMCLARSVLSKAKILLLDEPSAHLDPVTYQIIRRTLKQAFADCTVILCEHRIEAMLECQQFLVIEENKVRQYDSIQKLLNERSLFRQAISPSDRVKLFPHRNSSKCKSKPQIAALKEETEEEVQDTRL

Row | EC50 [µM] | Emax [%] | Compound
1 | < 10 | 25 to 100 | CC(Nc1ccc(NS(=O)(=O)c2ccc(Br)cc2)cc1)c1nc2ccccc2c(=O)n1C (centres unmarked) [compound 309]
2 | 10 to 25 | 25 to 100 | Cc1ccccc1S(=O)(=O)N1CCN(C(C)c2nc3cc(Cl)ccc3c(=O)n2C)CC1 (centres unmarked) [compound 109]
3 | 25 to 60 | < 25 | Cc1ccc(S(=O)(=O)N2CCN(Cc3nc4ccc(Cl)cc4c(=O)n3C)CC2)cc1 [compound 66]
4 | 25 to 60 | < 25 | CC(c1nc2ccccc2c(=O)n1C)N1CCN(S(=O)(=O)c2cccc(C#N)c2)CC1 (centres unmarked) [compound 279]
5 | 10 to 25 | 25 to 100 | CC(c1nc2ccc(S(C)(=O)=O)cc2c(=O)n1C)N1CCN(S(=O)(=O)c2ccc(Cl)cc2)CC1 (centres unmarked) [compound 141]
6 | 25 to 60 | < 25 | CCc1nc2cccc(Cl)c2c(=O)n1C [compound 102]
7 | 10 to 25 | 25 to 100 | Cc1cccc(C(=O)N2CCN(C(C)c3nc4cc(Cl)ccc4c(=O)n3C)CC2)c1 (centres unmarked) [compound 119]
8 | < 10 | > 100 | CCCC1CCN(c2nc(C(C)N3CCN(S(=O)(=O)c4ccc(OC)cc4)CC3)nc3ccccc23)CC1 (centres unmarked) [compound 365]
9 | 25 to 60 | 25 to 100 | COc1cc2nc(C(C)N3CCN(S(=O)(=O)c4ccc(Cl)cc4)CC3)n(C)c(=O)c2cc1OC (centres unmarked) [compound 283]
10 | 25 to 60 | < 25 | CCc1nc2ccc(Cl)cc2c(=O)n1C [compound 88]
11 | < 10 | > 100 | CC(NC1CCN(S(=O)(=O)c2ccc(Br)cc2)CC1)c1nc2ccccc2c(=O)n1C (centres unmarked) [compound 210]
12 | 25 to 60 | < 25 | CC(c1nc2ccccc2c(=O)n1C)N(CCN(C)S(=O)(=O)c1ccc(Br)cc1)S(=O)(=O)c1ccc(Br)cc1 (centres unmarked) [compound 202]
13 | 10 to 25 | 25 to 100 | CC(c1nc2ccccc2c(=O)n1C)N1CCN(S(=O)(=O)c2cccc3ccccc23)CC1 (centres unmarked) [compound 12]
14 | 25 to 60 | < 25 | CC(c1nc2ccccc2c(=O)n1C)N1CCN(S(=O)(=O)c2cccc(C(=O)O)c2)CC1 (centres unmarked) [compound 246]
15 | 25 to 60 | < 25 | CC(NC1CCN(S(=O)(=O)c2ccc(Cl)cc2)C1)c1nc2ccccc2c(=O)n1C (centres unmarked) [compound 225]
16 | 10 to 25 | > 100 | COc1ccc(S(=O)(=O)N2CCN(C(C)c3nc(N4CC=CC4)c4ccccc4n3)CC2)cc1 (centres unmarked) [compound 391]
17 | 10 to 25 | 25 to 100 | CC(c1nc2ccccc2c(=O)[nH]1)N1CCN(S(=O)(=O)c2ccc(Br)cc2)CC1 (centres unmarked) [compound 127]
18 | 25 to 60 | 25 to 100 | CCOC(=O)c1cnc(C(C)N2CCN(S(=O)(=O)c3ccc(OC)cc3)CC2)[nH]c1=O (centres unmarked) [compound 349]
19 | 25 to 60 | 25 to 100 | CC(c1nc(N(C)C)c2ccccc2n1)N1CCN(S(=O)(=O)c2ccc(Cl)cc2)CC1 (centres unmarked) [compound 233]
20 | 10 to 25 | 25 to 100 | CC(c1nc2cc(Cl)ccc2c(=O)n1C)N1CCN(S(=O)(=O)c2ccccc2)CC1 (centres unmarked) [compound 91]
21 | 10 to 25 | < 25 | Cc1ccc(S(=O)(=O)N2CCN(C(C)c3nc4ccc(Br)cc4c(=O)n3C)CC2)cc1 (centres unmarked) [compound 115]
22 | 10 to 25 | 25 to 100 | CC(c1nc2cccc(Cl)c2c(=O)n1C)N1CCN(S(=O)(=O)c2ccc(Br)cc2)CC1 (centres unmarked) [compound 105]
